Test results from ChEMBL document CHEMBL3044591, “Biological Activity of Some 2-Arylamino-4-aryloxyacetyl-2-1, 3, 4-thiadiazolidine Derivatives” (1994).

Assays:
Format in all cases: functional
Bipolaris oryzae [1] = assay: Fungicidal activity against Bipolaris oryzae assessed as inhibition at 10 ppm measured after 96 hr by agar growth technique
Bipolaris oryzae [2] = assay: Fungicidal activity against Bipolaris oryzae assessed as inhibition at 100 ppm measured after 96 hr by agar growth technique
Bipolaris oryzae [3] = assay: Fungicidal activity against Bipolaris oryzae assessed as inhibition at 1000 ppm measured after 96 hr by agar growth technique
Aspergillus niger [4] = assay: Fungicidal activity against Aspergillus niger assessed as inhibition at 10 ppm measured after 96 hr by agar growth technique
Aspergillus niger [5] = assay: Fungicidal activity against Aspergillus niger assessed as inhibition at 100 ppm measured after 96 hr by agar growth technique
Setaria viridis = assay: Herbicidal activity against Setaria viridis (green foxtail) assessed as killing at 6 kg/ha by post-emergent activity assay
Aspergillus niger [6] = assay: Fungicidal activity against Aspergillus niger assessed as inhibition at 1000 ppm measured after 96 hr by agar growth technique
Abutilon theophrasti = assay: Herbicidal activity against Abutilon theophrasti (velvetleaf) assessed as killing at 6 kg/ha by post-emergent activity assay
Echinochloa crus-galli = assay: Herbicidal activity against Echinochloa crus-galli (barnyard grass) assessed as killing at 6 kg/ha by post-emergent activity assay
Triticum aestivum = assay: Herbicidal activity against Triticum aestivum (wheat) assessed as killing at 6 kg/ha by post-emergent activity assay
Sorghum halepense = assay: Herbicidal activity against Sorghum halepense (Johnson grass) assessed as killing at 6 kg/ha by post-emergent activity assay

Structure (SMILES)	inhibition at 10 ppm (Bipolaris oryzae [1])	inhibition at 100 ppm (Bipolaris oryzae [2])	inhibition at 1000 ppm (Bipolaris oryzae [3])	inhibition at 10 ppm (Aspergillus niger [4])	inhibition at 100 ppm (Aspergillus niger [5])	Activity (Setaria viridis)	inhibition at 1000 ppm (Aspergillus niger [6])	Activity (Abutilon theophrasti)	Activity (Echinochloa crus-galli)	Activity (Triticum aestivum)	Activity (Sorghum halepense)
COc1ccc(NC2=NN(C(=O)COc3ccccc3Cl)C(C)(C)S2)cc1	31%	53%	60%	37%	56%	100%	65%	100%	100%	10%	100%
Cc1ccc(NC2=NN(C(=O)COc3cccc(C)c3)C(C)(C)S2)cc1	48%	63%	71%	54%	68%	20%	75%	30%	60%	15%	50%
Cc1ccc(NC2=NN(C(=O)COc3ccccc3Cl)C(C)(C)S2)cc1	32%	44%	56%	49%	52%	50%	63%	50%	20%	30%	50%
Cc1cccc(OCC(=O)N2N=C(Nc3ccc(Cl)cc3)SC2(C)C)c1	38%	47%	59%	48%	54%	50%	63%	40%	50%	10%	60%
CC1(C)SC(Nc2ccccc2)=NN1C(=O)COc1ccccc1Cl	31%	42%	52%	51%	44%	50%	56%	40%	60%	20%	70%
CC1(C)SC(Nc2ccc(Cl)cc2)=NN1C(=O)COc1ccccc1Cl	39%	48%	58%	49%	50%	50%	62%	40%	50%	10%	30%
CC1(C)SC(Nc2ccccc2)=NN1C(=O)COc1ccc(Cl)cc1	59%	67%	76%	45%	69%	40%	78%	40%	50%	0%	60%
COc1ccc(NC2=NN(C(=O)COc3cccc(C)c3)C(c3ccccc3)S2)cc1 (stereo unspecified)	50%	65%	72%	51%	67%	100%	74%	100%	100%	10%	100%
Cc1ccc(NC2=NN(C(=O)COc3cccc(C)c3)C(c3ccccc3)S2)cc1 (stereo unspecified)	46%	61%	68%	47%	62%	20%	70%	60%	30%	10%	50%
Cc1cccc(OCC(=O)N2N=C(Nc3ccc(Cl)cc3)SC2c2ccccc2)c1 (stereo unspecified)	38%	48%	58%	40%	49%	50%	62%	50%	60%	15%	60%
Cc1cccc(OCC(=O)N2N=C(Nc3ccccc3)SC2c2ccccc2)c1 (stereo unspecified)	39%	49%	61%	38%	54%	60%	67%	60%	60%	0%	60%
COc1ccc(NC2=NN(C(=O)COc3ccccc3Cl)C(c3ccccc3)S2)cc1 (stereo unspecified)	44%	58%	63%	44%	59%	100%	65%	100%	100%	10%	90%
Cc1ccc(NC2=NN(C(=O)COc3ccccc3Cl)C(c3ccccc3)S2)cc1 (stereo unspecified)	39%	50%	60%	43%	52%	50%	65%	40%	50%	30%	60%
O=C(COc1ccccc1Cl)N1N=C(Nc2ccc(Cl)cc2)SC1c1ccccc1 (stereo unspecified)	78%	80%	92%	78%	83%	60%	92%	50%	60%	25%	40%
COc1ccc(NC2=NN(C(=O)COc3cccc(C)c3)C(C)(C)S2)cc1	36%	54%	65%	43%	58%	100%	69%	100%	100%	10%	100%
O=C(COc1ccccc1Cl)N1N=C(Nc2ccccc2)SC1c1ccccc1 (stereo unspecified)	75%	80%	90%	77%	82%	50%	92%	50%	50%	20%	60%
